Consider one compound from US20060258685A1, “Substituted pyrazolopyrimidines, methods for the production thereof, use of the same for controlling pathogenic fungi, and agents containing said compounds” (priority 2003, published 2006).

In the assay the test system is Sphaerotheca fuliginea. Briefly: Activity against mildew on cucumber leaves caused by Sphaerotheca fuliginea, protective application. Format: in vivo. As to conditions: 250 ppm active compound, sprayed to runoff, cucumber seedlings, assessed after 7 days, untreated plants 90% infected. As for the experimental part:
The active compounds were separately prepared as a stock solution of 0.25% by weight of active compound in acetone or DMSO. 1% by weight of emulsifier Uniperol® EL (wetting agent having emulsifying and dispersing action based on ethoxylated alkylphenols) was added to this solution, and the solution was diluted with water to the desired concentration. Leaves of potted cucumber seedlings of the cultivar “Chinese snake” were, at the cotyledon stage, sprayed to runoff point with an aqueous suspension having the concentration of active compound stated below. 20 hours after the spray coating had dried on, the plants were inoculated with an aqueous spore suspension of mildew of cucumber (Sphaerotheca fuliginea). The plants were then cultivated in a greenhouse at temperatures between 20 and 24° C. and 60 to 80% relative atmospheric humidity for 7 days. The extent of the mildew development was then determined visually in % infection of the cotyledon area.

Consider `CC1CCN(c2c(-c3c(F)cc(F)cc3F)c(Cl)nc3c(Cl)cnn23)CC1` [III-1, 3,5-Dichloro-7-(4-methylpiperidin-1-yl)-6-(2,4,6-trifluorophenyl)-pyrazolo[1,5-a]pyrimidine], for which the “extent of the mildew development, determined visually in % infection of the cotyledon area” value is recorded as “no infection”.
